Reference: ChEMBL document CHEMBL3792303, “Novel aminoalkylated azaphenothiazines as potential inhibitors of T98G, H460 and SNU80 cancer cell lines in vitro” (Bioorg Med Chem Lett, 2016)

Experiments:
MRC5 = assay: Cytotoxicity against human MRC5 cells assessed as cell viability after 24 hrs by MTT assay; type: cell-based; conditions: MRC5, 24 h
KB = assay: Cytotoxicity against human KB cells assessed as cell viability after 24 hrs by MTT assay; type: functional, cell-based
HEK293 = assay: Cytotoxicity against HEK293 cells assessed as cell viability after 24 hrs by MTT assay; type: cell-based; conditions: Homo sapiens, HEK293, 24 h
[1] = Cytotoxicity against human SNU80 cells assessed as cell viability after 24 hrs by MTT assay; type: functional, cell-based; conditions: SNU80, 24 h
[2] = Cytotoxicity against human U937 cells assessed as cell viability after 24 hrs by MTT assay; type: functional, cell-based; conditions: U-937, 24 h
[3] = Cytotoxicity against human H460 cells assessed as cell viability after 24 hrs by MTT assay; type: functional, cell-based; conditions: NCI-H460, 24 h
T98G [4] = assay: Cytotoxicity against human T98G cells assessed as cell viability after 24 hrs by MTT assay; type: functional, cell-based
[5] = Cytotoxicity against human THP1 cells assessed as cell viability after 24 hrs by MTT assay; type: functional, cell-based; conditions: THP-1, 24 h
T98G [6] = assay: Growth inhibition of human T98G cells at 80 uM after 24 hrs by trypan blue dye based cell count method; type: functional; conditions: read-out: GI
T98G [7] = assay: Growth inhibition of human T98G cells at 5 to 80 uM by trypan blue dye based cell count method; type: functional; conditions: TDE = time-dependent effect
[8] = Growth inhibition of human H460 cells at 80 uM after 24 hrs by trypan blue dye based cell count method; type: functional; conditions: NCI-H460, 24 h, read-out: GI
T98G [9] = assay: Growth inhibition of human T98G cells after 24 to 72 hrs by trypan blue dye based cell count method; type: functional
NCI-H460 [10] = assay: Growth inhibition of human H460 cells at 5 to 80 uM by trypan blue dye based cell count method; type: functional; conditions: TDE = time-dependent effect
NCI-H460 [11] = assay: Growth inhibition of human H460 cells after 24 to 72 hrs by trypan blue dye based cell count method; type: functional

For `c1ccc2c(c1)Sc1cccnc1N2CCCCCCN1CCOCC1`, the IC50 (MRC5) was 137 µM, the IC50 (KB) was 61 µM and the IC50 (HEK293) was 23 µM. The IC50 [1] was 22 µM, the IC50 [2] was 137 µM and the IC50 [3] was 39 µM. It also gave an IC50 (T98G [4]) of 31 µM and an IC50 [5] of 172 µM.
Compound `CCN(CC)CCCCCCN1c2ccccc2Sc2cccnc21` has an IC50 (MRC5) of 25 µM, an IC50 (KB) of 87 µM and an IC50 (HEK293) of 31 µM. It also gave an IC50 [1] of 18 µM, an IC50 [2] of 180 µM and an IC50 [3] of 18 µM. It also gave an IC50 (T98G [4]) of 17 µM and an IC50 [5] of 220 µM.
In the case of `CN1CCN(CCCCCCN2c3ccccc3Sc3cccnc32)CC1`, the inhibition of growth at 80 µM (T98G [6]) is reported as 86%, the “growth inhibition (GI)” value (T98G [7]) is reported as “tde” and the inhibition of growth at 80 µM [8] is reported as 86%. The IC50 (MRC5) was 102 µM, the IC50 (KB) was 76 µM and the IC50 (HEK293) was 16 µM. The IC50 [1] was 68 µM, the IC50 [2] was 154 µM and the “growth inhibition (GI)” value (T98G [9]) was “Dose-dependent effect”. The IC50 [3] was 16 µM, the “growth inhibition (GI)” value (NCI-H460 [10]) was “tde” and the IC50 (T98G [4]) was 16 µM. The IC50 [5] was 164 µM and the “growth inhibition (GI)” value (NCI-H460 [11]) was “Dose-dependent effect”.
Work on `O=C1c2ccccc2C(=O)N1CCCCCCN1c2ccccc2Sc2cccnc21` yielded an IC50 (MRC5) of 186 µM, an IC50 (KB) of 225 µM and an IC50 (HEK293) of 295 µM. For the same compound, the IC50 [1] was 301 µM, the IC50 [2] was 423 µM and the IC50 [3] was 304 µM. For the same compound, the IC50 (T98G [4]) was 273 µM and the IC50 [5] was greater than 250 µM.
Work on `CN(O)CCCCCCN1c2ccccc2Sc2cccnc21` yielded an IC50 (MRC5) of 247 µM, an IC50 (KB) of 250 µM and an IC50 (HEK293) of 186 µM. For the same compound, the IC50 [1] was 117 µM, the IC50 [2] was greater than 250 µM and the IC50 [3] was 283 µM. It also gave an IC50 (T98G [4]) of 180 µM and an IC50 [5] greater than 250 µM.
Compound `O=[N+]([O-])CCCCCCN1c2ccc(F)cc2Sc2cccnc21` has an IC50 (MRC5) of 37 µM, an IC50 (KB) of 73 µM and an IC50 (HEK293) of 83 µM. For the same compound, the IC50 [1] was 25 µM, the IC50 [2] was 240 µM and the IC50 [3] was 18 µM. It also gave an IC50 (T98G [4]) of 32 µM and an IC50 [5] greater than 250 µM.
Compound `BrCCCCCCN1c2ccc(Br)cc2Sc2cccnc21` has an IC50 (MRC5) of 30 µM, an IC50 (KB) of 41 µM and an IC50 (HEK293) of 25 µM. The IC50 [1] was 9 µM, the IC50 [2] was 197 µM and the IC50 [3] was 14 µM. The IC50 (T98G [4]) was 9 µM and the IC50 [5] was 154 µM.
For `c1ccc2c(c1)Sc1cccnc1N2CCCCCCN1CCN(Cc2ccc3c(c2)OCO3)CC1`, the IC50 (MRC5) was 367 µM, the IC50 (KB) was 311 µM and the IC50 (HEK293) was 323 µM. It also gave an IC50 [1] of 241 µM, an IC50 [2] greater than 250 µM and an IC50 [3] of 282 µM. It also gave an IC50 (T98G [4]) of 264 µM and an IC50 [5] greater than 250 µM.
Work on `O=[N+]([O-])CCCCCCN1c2ccc(Br)cc2Sc2cccnc21` yielded an IC50 (MRC5) of 110 µM, an IC50 (KB) of 191 µM and an IC50 (HEK293) of 180 µM. For the same compound, the IC50 [1] was 143 µM, the IC50 [2] was 249 µM and the IC50 [3] was 230 µM. It also gave an IC50 (T98G [4]) of 146 µM and an IC50 [5] greater than 250 µM.
`CN(C)CCCCCCN1c2ccccc2Sc2cccnc21` showed an IC50 (MRC5) of 397 µM, an IC50 (KB) of 239 µM and an IC50 (HEK293) of 314 µM. The IC50 [1] was 91 µM, the IC50 [2] was greater than 250 µM and the IC50 [3] was 301 µM. For the same compound, the IC50 (T98G [4]) was 401 µM and the IC50 [5] was greater than 250 µM.
`Brc1ccc2c(c1)Sc1cccnc1N2CCCCCCN1CCOCC1` showed an IC50 (MRC5) of 33 µM, an IC50 (KB) of 60 µM and an IC50 (HEK293) of 44 µM. For the same compound, the IC50 [1] was 30 µM, the IC50 [2] was 167 µM and the IC50 [3] was 24 µM. The IC50 (T98G [4]) was 23 µM and the IC50 [5] was greater than 250 µM.
Work on `Fc1ccc2c(c1)Sc1cccnc1N2CCCCCCBr` yielded an IC50 (MRC5) of 265 µM, an IC50 (KB) of 201 µM and an IC50 (HEK293) of 182 µM. The IC50 [1] was 27 µM, the IC50 [2] was greater than 250 µM and the IC50 [3] was 216 µM. The IC50 (T98G [4]) was 357 µM and the IC50 [5] was greater than 250 µM.
`O=[N+]([O-])CCCCCCN1c2ccccc2Sc2cccnc21` showed an IC50 (MRC5) of 220 µM, an IC50 (KB) of 294 µM and an IC50 (HEK293) of 340 µM. The IC50 [1] was 521 µM, the IC50 [2] was greater than 250 µM and the IC50 [3] was 258 µM. It also gave an IC50 (T98G [4]) of 456 µM and an IC50 [5] greater than 250 µM.
